In brackets after ≈: the same amount, converted by molar mass.
What was measured:
[1] = test system: Trichophyton mentagrophytes SM-110; experiment: Antifungal activity evaluation test: minimum inhibitory concentration (MIC), broth dilution by reference to CLSI M38-A2; format: cell-based; conditions: SM110, read-out: MIC (T. menta.)
How it was run: (§1)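 Broth microdilution after CLSI M38-A2: 2-fold DMSO dilution series in MOPS-buffered RPMI 1640 pH 7.0, inoculum 2×10^3 cells/mL final. Incubated 35° C for 4 days; MIC (μg/mL) is lowest concentration giving visually ≥80% growth inhibition versus growth control.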

[2] = test system: Trichophyton rubrum KD-1130; experiment: as above; format: cell-based; conditions: KD1130, read-out: MIC (T. rubrum)
How it was run: as §1

| MIC [1] | MIC [2] | Structure (SMILES) |
| --- | --- | --- |
| ≤ 0.1 µg/mL | ≤ 0.1 µg/mL | CCc1ccc(Oc2ncccc2-c2cncc(Br)c2OC)cc1 [I-285, 5′-bromo-2-(4-ethylphenoxy)-4′-methoxy-3,3′-bipyridine] |
| ≤ 0.1 µg/mL | ≤ 0.1 µg/mL | CCc1ccc(Oc2ncccc2-c2cncc(C)c2OC)cc1 [I-286, 2-(4-ethylphenoxy)-4′-methoxy-5′-methyl-3,3′-bipyridine] |
| 0.2 to 0.78 µg/mL (≈ 0.598 to 2.33 µM) | 0.2 to 0.78 µg/mL (≈ 0.598 to 2.33 µM) | CCc1ccc(Oc2ncccc2-c2cncc(C=O)c2OC)cc1 [I-287, 2′-(4-ethylphenoxy)-4-methoxy-(3,3′-bipyridine)-5-carbaldehyde] |
| ≤ 0.1 µg/mL | ≤ 0.1 µg/mL | CCc1ccc(Oc2ncccc2-c2cncc(C(F)F)c2OC)cc1 [I-288, 5′-(difluoromethyl)-2-(4-ethylphenoxy)-4′-methoxy-3,3′-bipyridine] |
| ≤ 0.1 µg/mL | ≤ 0.1 µg/mL | CCc1ccc(Oc2ncccc2-c2cnccc2C)cc1 [I-289, 2-(4-ethylphenoxy)-4′-methyl-3,3′-bipyridine] |
| ≤ 0.1 µg/mL | ≤ 0.1 µg/mL | CCc1ccc(Oc2ncccc2-c2cnccc2Cl)cc1 [I-290, 4′-chloro-2-(4-ethylphenoxy)-3,3′-bipyridine] |
| ≤ 0.1 µg/mL | ≤ 0.1 µg/mL | CCc1ccc(Oc2ncccc2-c2cnccc2CC)cc1 [I-291, 4′-ethyl-2-(4-ethylphenoxy)-3,3′-bipyridine] |
| ≤ 0.1 µg/mL | ≤ 0.1 µg/mL | CCc1ccc(Oc2ncccc2-c2cccc3ccnn23)cc1 [I-292, 7-[2-(4-ethylphenoxy)pyridin-3-yl]pyrazolo[1,5-a]pyridine] |
| 1.56 to 6.25 µg/mL (≈ 4.74 to 19 µM) | 1.56 to 6.25 µg/mL (≈ 4.74 to 19 µM) | CCc1ccc(Oc2ncccc2-c2cc3nccn3cc2C)cc1 [I-293, 7-[2-(4-ethylphenoxy)pyridin-3-yl]-6-methylimidazo[1,2-a]pyridine] |
| 0.2 to 0.78 µg/mL (≈ 0.609 to 2.38 µM) | 0.2 to 0.78 µg/mL (≈ 0.609 to 2.38 µM) | COc1ccncc1-c1cccnc1Oc1ccc(C(F)F)cc1 [I-294, 2-[4-(difluoromethyl)phenoxy]-4′-methoxy-3,3′-bipyridine] |
| ≤ 0.1 µg/mL | ≤ 0.1 µg/mL | COc1ccncc1-c1cccnc1Oc1ccc(C(F)F)c(C)c1 [I-295, 2-[4-(difluoromethyl)-3-methylphenoxy]-4′-methoxy-3,3′-bipyridine] |
| ≤ 0.1 µg/mL | ≤ 0.1 µg/mL | CCc1cc(Oc2ncccc2-c2cnccc2OC)ccc1C(F)F [I-296, 2-[4-(difluoromethyl)-3-ethylphenoxy]-4′-methoxy-3,3′-bipyridine] |
| ≤ 0.1 µg/mL | ≤ 0.1 µg/mL | COc1ccncc1-c1cccnc1Oc1ccc(C(C)(F)F)cc1 [I-297, 2-[4-(1,1-difluoroethyl)-phenoxy]-4′-methoxy-3,3′-bipyridine] |
| ≤ 0.1 µg/mL | ≤ 0.1 µg/mL | COc1ncccc1-c1cccnc1Oc1ccc(C(C)(F)F)cc1 [I-298] |
| ≤ 0.1 µg/mL | ≤ 0.1 µg/mL | Cc1ccncc1-c1cccnc1Oc1ccc(C(C)(F)F)cc1 [I-299, 2-[4-(1,1-difluoroethyl)-phenoxy]-4′-methyl-3,3′-bipyridine] |
| ≤ 0.1 µg/mL | ≤ 0.1 µg/mL | COc1c(Cl)cncc1-c1cccnc1Oc1ccc(C(C)(F)F)cc1 [I-300] |
| ≤ 0.1 µg/mL | ≤ 0.1 µg/mL | COc1c(F)cncc1-c1cccnc1Oc1ccc(C(C)(F)F)cc1 [I-301, 2-[4-(1,1-difluoroethyl)-phenoxy]-5′-fluoro-4′-methoxy-3,3′-bipyridine] |
| ≤ 0.1 µg/mL | ≤ 0.1 µg/mL | COc1ccncc1-c1cccnc1Oc1ccc(C(C)(F)F)cc1F [I-302] |
| ≤ 0.1 µg/mL | ≤ 0.1 µg/mL | Cc1ccncc1-c1cccnc1Oc1ccc(C(C)(F)F)cc1F [I-303, 2-[4-(1,1-difluoroethyl)-2-fluorophenoxy]-4′-methyl-3,3′-bipyridine] |
| ≤ 0.1 µg/mL | ≤ 0.1 µg/mL | COc1ccncc1-c1cccnc1Oc1ccc(C(C)(F)F)c(F)c1 [I-304] |
| ≤ 0.1 µg/mL | ≤ 0.1 µg/mL | Cc1ccncc1-c1cccnc1Oc1ccc(C(C)(F)F)c(F)c1 [I-305, 2-[4-(1,1-difluoroethyl)-3-fluorophenoxy]-4′-methyl-3,3′-bipyridine] |
| ≤ 0.1 µg/mL | ≤ 0.1 µg/mL | Cc1ccncc1-c1cccnc1Oc1ccc(C(F)(F)CF)cc1 [I-306] |
| ≤ 0.1 µg/mL | ≤ 0.1 µg/mL | CC(F)(F)c1ccc(Oc2ncccc2-c2cccc3ccnn23)cc1 [I-307, 7-{2-[4-(1,1-difluoroethyl)-phenoxy]pyridin-3-yl}pyrazolo[1,5-a]pyridine] |
| ≤ 0.1 µg/mL | ≤ 0.1 µg/mL | CC(F)(F)c1ccc(Oc2ncccc2-c2cccc3nccnc23)cc1 [I-308, 5-{2-[4-(1,1-difluoroethyl)-phenoxy]-3-yl}quinoxaline] |
| 0.2 to 0.78 µg/mL (≈ 0.576 to 2.25 µM) | ≤ 0.1 µg/mL | COc1ccccc1-c1nccnc1Oc1ccc(C(F)(F)F)nc1 [I-309, 2-(2-methoxyphenyl)-3-{[6-(trifluoromethyl)pyridin-3-yl]oxy}pyrazine] |

| MIC [1] | MIC [2] | Structure (SMILES) |
| --- | --- | --- |
| ≤ 0.1 µg/mL | ≤ 0.1 µg/mL | COc1ccccc1-c1cncnc1Oc1ccc(C(F)(F)F)nc1 [I-310, 5-(2-methoxyphenyl)-4-{[6-(trifluoromethyl)pyridin-3-yl]oxy}pyrimidine] |
| 0.2 to 0.78 µg/mL (≈ 0.576 to 2.25 µM) | 0.2 to 0.78 µg/mL (≈ 0.576 to 2.25 µM) | COc1ccccc1-c1ccnnc1Oc1ccc(C(F)(F)F)nc1 [I-311, 4-(2-methoxyphenyl)-3-{[6-(trifluoromethyl)pyridin-3-yl]oxy}pyridazine] |
| ≤ 0.1 µg/mL | ≤ 0.1 µg/mL | COc1ccccc1-c1cncnc1Oc1ccc(C(C)(F)F)nc1 [I-312, 4-{[6-(1,1-difluoroethyl)-pyridin-3-yl]oxy}-5-(2-methoxyphenyl)pyrimidine] |
| ≤ 0.1 µg/mL | ≤ 0.1 µg/mL | COc1ccccc1-c1cccnc1Nc1ccc(C(F)(F)F)nc1 [I-313] |
| 0.2 to 0.78 µg/mL (≈ 0.601 to 2.34 µM) | ≤ 0.1 µg/mL | Clc1ccc(Oc2nccnc2-c2cccc3ccccc23)cc1 [I-314, 2-(4-chlorophenoxy)-3-(naphthalen-1-yl)pyrazine] |
| ≤ 0.1 µg/mL | ≤ 0.1 µg/mL | COc1ccccc1-c1nccnc1Oc1ccc2c(c1)CCCC2 [I-315] |
| ≤ 0.1 µg/mL | ≤ 0.1 µg/mL | COc1ncccc1-c1nccnc1Oc1ccc2c(c1)CCCC2 [I-316, 2-(2-methoxypyridin-3-yl)-3-[(5,6,7,8-tetrahydronaphthalen-2-yl)oxy]pyrazine] |
| ≤ 0.1 µg/mL | ≤ 0.1 µg/mL | COc1ccncc1-c1nccnc1Oc1ccc2c(c1)CCCC2 [I-317, 2-(4-methoxypyridin-3-yl)-3-[(5,6,7,8-tetrahydronaphthalen-2-yl)oxy]pyrazine] |
| ≤ 0.1 µg/mL | ≤ 0.1 µg/mL | COc1ncccc1-c1nccnc1Oc1ccc(OCc2ccccc2)cc1 [I-318, 2-[4-(benzyloxy)phenoxy]-3-(2-methoxypyridin-3-yl)pyrazine] |
| ≤ 0.1 µg/mL | ≤ 0.1 µg/mL | COc1ccccc1-c1cncnc1Oc1ccc(Cl)cc1 [I-319, 4-(4-chlorophenoxy)-5-(2-methoxyphenyl)pyrimidine] |
| ≤ 0.1 µg/mL | ≤ 0.1 µg/mL | COc1ccccc1-c1cncnc1Oc1ccc(C(C)C)cc1 [I-320, 4-(4-isopropylphenoxy)-5-(2-methoxyphenyl)pyrimidine] |
| ≤ 0.1 µg/mL | ≤ 0.1 µg/mL | COc1ccccc1-c1cncnc1Oc1ccc(C(F)(F)F)cc1 [I-321, 5-(2-methoxyphenyl)-4-[4-(trifluoromethyl)phenoxy]pyrimidine] |
| ≤ 0.1 µg/mL | ≤ 0.1 µg/mL | COc1ccccc1-c1cncnc1Oc1ccc(C(F)F)cc1 [I-322, 4-[4-(difluoromethyl)phenoxy]-5-(2-methoxyphenyl)pyrimidine] |
| ≤ 0.1 µg/mL | ≤ 0.1 µg/mL | COc1ccccc1-c1cncnc1Oc1ccc(C(F)F)c(C)c1 [I-323, 4-[4-(difluoromethyl)-3-methylphenoxy]-5-(2-methoxyphenyl)pyrimidine] |
| ≤ 0.1 µg/mL | ≤ 0.1 µg/mL | Cc1cc(Oc2ncncc2-c2cccc3c2OCC3)cnc1C(F)F [I-324] |
| ≤ 0.1 µg/mL | ≤ 0.1 µg/mL | COc1cc(-c2cncnc2Oc2cnc(C(F)F)c(C)c2)c(F)cc1F [I-325, 5-(2,4-difluoro-5-methoxyphenyl)-4-{[6-(difluoromethyl)-5-methylpyridin-3-yl]oxy}pyrimidine] |
| ≤ 0.1 µg/mL | ≤ 0.1 µg/mL | c1cc(-c2cncnc2Oc2ccc3c(c2)CCC3)n2nccc2c1 [I-326, 7-{4-[(2,3-dihydro-1H-inden-5-yl)oxy]pyrimidin-5-yl}pyrazolo[1,5-a]pyridine] |
| ≤ 0.1 µg/mL | ≤ 0.1 µg/mL | FC(F)(F)c1ccc(Oc2ncncc2-c2cccc3c2OCC3)cn1 [I-327, 5-(2,3-dihydrobenzofuran-7-yl)-4-{[6-(trifluoromethyl)pyridin-3-yl]oxy}pyrimidine] |
| ≤ 0.1 µg/mL | ≤ 0.1 µg/mL | COc1cc(F)c(F)cc1-c1cncnc1Oc1ccc(C(F)(F)F)nc1 [I-328, 5-(4,5-difluoro-2-methoxyphenyl)-4-{[6-(trifluoromethyl)pyridin-3-yl]oxy}pyrimidine] |
| ≤ 0.1 µg/mL | ≤ 0.1 µg/mL | COc1cc(-c2cncnc2Oc2ccc(C(F)(F)F)nc2)c(F)cc1F [I-329, 5-(2,4-difluoro-5-methoxyphenyl)-4-{[6-(trifluoromethyl)pyridin-3-yl]oxy}pyrimidine] |
| ≤ 0.1 µg/mL | ≤ 0.1 µg/mL | COc1ncccc1-c1cncnc1Oc1ccc(C(F)(F)F)cc1 [I-330, 5-(2-methoxypyridin-3-yl)-4-[4-(trifluoromethyl)phenoxy]pyrimidine] |
| ≤ 0.1 µg/mL | ≤ 0.1 µg/mL | COc1c(Cl)cncc1-c1cncnc1Oc1ccc(C(F)(F)F)cc1 [I-331, 5-(5-chloro-4-methoxypyridin-3-yl)-4-[4-(trifluoromethyl)phenoxy]pyrimidine] |
| ≤ 0.1 µg/mL | ≤ 0.1 µg/mL | FC(F)(F)c1ccc(Oc2ncncc2-c2cccc3ccnn23)cc1 [I-332, 7-{4-[4-(trifluoromethyl)phenoxy]pyrimidin-5-yl}pyrazolo[1,5-a]pyridine] |
| ≤ 0.1 µg/mL | ≤ 0.1 µg/mL | CC(F)(F)c1ccc(Oc2ncncc2-c2cccc3ccnn23)cc1 [I-333, 7-{4-[4-(1,1-difluoroethyl)phenoxy]pyrimidin-5-yl}pyrazolo[1,5-a]pyridine] |
